The subject of one data set is human fat suspension. The experiment in a line: In vitro assay of glycerol production in human fat (Example 3). Type of data set: cell-based. The conditions noted are these: end concentration 1 microM, 2 hours at 37 degrees Celsius; P=0.10. As to the method: Human fat tissue was pottered using a teflon potter in 10 ml PBS with 6 mM Glucose (2.4 gram fat tissue per 10 ml). The suspension was transferred to a 50 ml beaker and was gently stirred at 37 degrees Celsius to maintain the homogeneous nature. 0.3 ml suspension was transferred to 2 ml reaction vials, spiked with octopamine (end concentration 1 microM) and octopamine decanoate (end concentration 10 microM and PBS/glucose were added until 2 ml end volume. Vials were incubated at 37 degrees Celsius for 2 hours.
Samples were spun off at 4000 rpm for 2 min and 10 microliter samples were taken after removal of floating fat with a tissue.
Samples were analyzed using an enzymatic kit (Sigma Aldrich) and fluorescence intensity was measured using direct flow injection (Vici valve in combination with Shimadzu 10 ADvp HPLC pump at 0.15 ml/min, thermo 15*2.1 C18 column prior to valve and using ultrapure water as mobile phase) of 20 microliter into a HPLC fluorescence detector (Shimadzu RF 10Ax1). Calibration was performed by preparation of calibration samples 2-1000 microM.

Data set [1] can be described thus: Stability / hydrolysis in PBS at 37 degrees (Example 6). Type of data set: physicochemical. Here is the method: Samples were analyzed using HPLC UV.
Data set [2] can be described thus: Skin penetration chamber, human skin (Example 7). Type of data set: in vitro ADME. The conditions noted are these: 0.25 ml hydrogel 2.75 mg/ml, human skin 6.25 cm^2, 2 hours. Here is the method:
The chamber was thermostated at 37° C. Samples were drawn from the PBS pottered tissue with a 1 ml syringe and analyzed using LC-mass spectrometry. Given the full conversion, this assay evaluates the total penetration of octopamine prodrug through skin based on equal amounts of octopamine, and compares this to the penetration of an equal amount of octopamine itself. Samples were analyzed using HPLC masspectrometry. A Shimadzu HPLC (LC20AD pump and […] injector) was used in conjunction with a sciex API 4000 Masspectrometer. The HPLC column was a Phenomenex, Synergi Max (BOL-P-RP2.5-036), 3.0×100mm, […], thermostated at 35° C. The mobile phase consisted of Eluent A: 0.1% formic acid (“FA”) in ultrapure water (“UP”) and Eluent B: 70% acetonitrile (“ACN”) +0.1% FA at a total flow of 0.3 ml/min. […] UP/ACN/FA =50/50/0.1. […] Gradients were maintained at 100% B for 0.5 minute. […] Samples were centrifugated for 5 mins at 13000 rpm and 14 μL 0.1% FA in UP was added to 6 μL supernatant and vortexed for 10 sec. The autoinjector was programmed to add 20 μl 0.5 mg/ml […] reagent (online) and inject 35 μl. The […] reagent was prepared by dissolving 5 mg […] in 4.5 ml UP, 5 ml 0.25 M NaHCO3, 0.5 ml methanol (“MeOH”) and 20 microliter 2-mercapto-ethanol.

Data set [3] in a line: Skin and fat penetration assay, cubes of human fat with skin (Example 8). The conditions noted are these: 0.25 ml hydrogel applied once, 20 hrs. In kind it is in vitro ADME. As to the method:
Cubes of human fat (5×5×5 cm) with skin attached from obese female subjects that underwent esthetic surgery was dissected at 4° C. Cubes were transferred to containers so the skin would overlay the rim of the container. 0.25 ml of hydrogels comprising 2.75 mg/ml free octopamine, 5 mg/ml octopamine decanoate or 3.98 mg/ml octopamine pentanoate were applied once and left to penetrate for 20 hrs. Cubes were subsequently frozen at −80° C.
Upon defrosting, skin was carefully removed taking care not to contaminate the underlying fat. The fat was dissected to yield a column of 1×1 cm of fat that was directly under the site of application. The column was sliced to yield 0.5 cm thick slices covering 0-2cm fat depth under the site of application. Tissue was sonicated in 5 ml PBS (5 mM glucose), samples were spun down (13000 rpm for 30 min at 4° C.). Clear supernatant was removed with an injection needle and syringe and frozen until analysis. Analysis of octopamine was performed as described in Example 7.

Data set [4] concerns human volunteers. As to the kind of experiment: Application on human volunteers: waistline and skinfold (Example 10). In kind it is in vivo. As to conditions: same molar concentration. As to the method: For abdominal/hip experiments 2 male volunteers […] (BMI 25.5 and 28 resp.) monitored belly circumference, and skinfold at belly and hip on a daily basis (8 am mornings). Blood pressure and body weight was monitored daily. […] Hydrogel was applied daily or twice daily as indicated using a 5 ml syringe to measure volume. For abdominal experiments, the indicated volume of hydrogel was applied on the belly around the belly button in a radius of 10 cm. The same volume was applied for hip areas. For leg experiments, 2.5 ml was applied on each leg. Skinfold was assessed by measuring thickness of skin at hips and belly 4 cm from belly button using a skinfold measuring device ([…]-120). […] Experiments are the average of two experiments (n=2). […] Experiments are an average of 2 or 3 runs (n=2-3).

A short description of data set [5]: Plasma levels of octopamine in human volunteers (Example 10). As to conditions: humans, 2.5 ml or 5 ml hydrogel. In kind it is in vivo. Here is the method:
After thorough washing of hands, blood was sampled using […]. Blood (40 microliter) was sampled using a capillary that protruded the cap of the vial and spun down into 300 microliter vials containing 10 microliter of heparin 20 IE/ml. Plasma was pipetted off and transferred to 300 microliter vials and stored at -20° C. until analysis. Octopamine was analyzed as described in Example 7. […] FIG. 17b), and of octopamine pentanoate (3.98 mg/ml, 2.5 ml, once daily); FIG. 17c). Experiments are an average of one or two experiments (n=1-2).

Another data set has as its system human subject. The experiment in a line: Removal of cellulite on a human subject (Example 11). In kind it is in vivo. As to conditions: hydrogel 3.98 mg/ml, 5 ml once daily, area with moderate cellulite, after three days. Here is the method: A hydrogel comprising 3.98 mg/ml octopamine pentanoate (5 ml) was applied once daily on a human subject in an area with moderate cellulite.

In data set [6] the test system is human volunteers. As to the kind of experiment: Blood pressure, heart rate and side effects in human volunteers (Example 10). As to conditions: humans, topical hydrogel treatment regimes.

Turning to p-Octopamine [reference compound], the “Glycerol production (levels)” value in the data set with human fat suspension was “increased”. Besides, the “Stability in PBS” value in data set [1] is recorded as “stable”. For the same compound, the “Penetration of octopamine through skin” value in data set [2] is “minor penetration”. In addition, the “Penetration through skin and fat tissue” value in data set [3] is “penetrate through both skin and fat tissue”. Moreover, the Decrease of waistline entry in the data set on human volunteers [4] (humans n=2, hydrogel on belly and hips, 2.5 ml once daily or 5 ml twice daily, after 16 days) is on record as “without effect”; in the data set with human volunteers [4] (single individual, hydrogel on belly and hips, after 21 days), “without effect”. In addition, the “Plasma levels of free octopamine upon administration of hydrogel” value in data set [5] is listed as “acceptable systemic concentrations”.
Regarding `CCCCC(=O)Oc1ccc(C(O)CN)cc1.Cl` (stereo not shown) [octopamine pentanoate, 4-(2-amino-1-hydroxyethyl)phenyl valeroate hydrochloride], in data set [1] (PBS at 37 degrees), the “Hydrolysis in PBS compared with plasma or fat tissue” value was “much lower rate”. For the same compound, in data set [3], the “Concentrations of free octopamine in fat layers (0-2 cm depth) compared with hydrogel comprising octopamine” value is given as “higher concentrations”; the “Penetration through skin and fat tissue” value is “penetrate through both skin and fat tissue”. In addition, the “Plasma levels of free octopamine upon administration of hydrogel” value in data set [5] is “did not result in unacceptable plasma levels”. Besides, the Cellulite entry with human subject is “noticeably decreased”. For the same compound, the Side effects entry in the data set on human volunteers [6] was “no side effects were reported”.

The values are drawn from patent publication US20210220241A1, “Body Sculpting” (Sculpt B.V., priority 2014, published 2021).
